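Interpolation was linear, between the two tested concentrations surrounding the appropriate level; five concentrations were tested over 48 hours in 96-well plates. GI50: concentration for 50% inhibition of growth. TGI marks complete inhibition of growth.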
Experiments:
Assay in all cases: NCI anticancer screen, dose series, 48 h
786-0 renal = system: 786-0 renal
A498 renal = system: A498 renal
ACHN renal = system: ACHN renal
CAKI-1 renal = system: CAKI-1 renal
CCRF-CEM leukemia = system: CCRF-CEM leukemia
COLO 205 colon = system: COLO 205 colon
DU-145 prostate = system: DU-145 prostate
HCT-116 colon = system: HCT-116 colon
HCT-15 colon = system: HCT-15 colon
HL-60(TB) leukemia = system: HL-60(TB) leukemia
HS 578T breast = system: HS 578T breast
HT29 colon = system: HT29 colon
IGROV1 ovarian = system: IGROV1 ovarian
K-562 leukemia = system: K-562 leukemia
M14 melanoma = system: M14 melanoma
MALME-3M melanoma = system: MALME-3M melanoma
MDA-MB-231 breast = system: MDA-MB-231 breast
MDA-MB-435 = system: MDA-MB-435
MOLT-4 leukemia = system: MOLT-4 leukemia
NCI-H226 lung = system: NCI-H226 lung
NCI-H522 lung = system: NCI-H522 lung
NCI/ADR-RES ovarian = system: NCI/ADR-RES ovarian
OVCAR-3 ovarian = system: OVCAR-3 ovarian
OVCAR-4 ovarian = system: OVCAR-4 ovarian
OVCAR-5 ovarian = system: OVCAR-5 ovarian
PC-3 prostate = system: PC-3 prostate
RPMI-8226 leukemia = system: RPMI-8226 leukemia
SF-539 CNS = system: SF-539 CNS
SK-MEL-2 melanoma = system: SK-MEL-2 melanoma
SK-MEL-28 melanoma = system: SK-MEL-28 melanoma
SK-MEL-5 melanoma = system: SK-MEL-5 melanoma
SK-OV-3 ovarian = system: SK-OV-3 ovarian
SN12C renal = system: SN12C renal
SNB-19 CNS = system: SNB-19 CNS
SNB-75 CNS = system: SNB-75 CNS
SR leukemia = system: SR leukemia
T-47D breast = system: T-47D breast
TK-10 renal = system: TK-10 renal
U251 CNS = system: U251 CNS
UACC-257 melanoma = system: UACC-257 melanoma
UACC-62 melanoma = system: UACC-62 melanoma
UO-31 renal = system: UO-31 renal

`Cn1cc(-c2cc3nc(-c4c[nH]c5ccc(Cl)cc45)cc(N)n3n2)c2ccccc21` was tested, and the GI50 (786-0 renal) was 1450 nM, the TGI (786-0 renal) was 2830 nM and the GI50 (A498 renal) was 1600 nM. It also gave a TGI (A498 renal) of 3370 nM, a GI50 (ACHN renal) of 1540 nM and a TGI (ACHN renal) of 2870 nM. For the same compound, the GI50 (CAKI-1 renal) was 1450 nM, the TGI (CAKI-1 renal) was 2910 nM and the GI50 (CCRF-CEM leukemia) was 3120 nM. The TGI (CCRF-CEM leukemia) was 11200 nM, the GI50 (COLO 205 colon) was 1800 nM and the TGI (COLO 205 colon) was 3350 nM. For the same compound, the GI50 (DU-145 prostate) was 1840 nM, the TGI (DU-145 prostate) was 3320 nM and the GI50 (HCT-116 colon) was 1620 nM. The TGI (HCT-116 colon) was 2980 nM, the GI50 (HCT-15 colon) was 1470 nM and the TGI (HCT-15 colon) was 2910 nM. It also gave a GI50 (HL-60(TB) leukemia) of 2020 nM, a TGI (HL-60(TB) leukemia) of 4750 nM and a GI50 (HS 578T breast) of 1910 nM. For the same compound, the TGI (HS 578T breast) was 4800 nM, the GI50 (HT29 colon) was 1560 nM and the TGI (HT29 colon) was 2980 nM. For the same compound, the GI50 (IGROV1 ovarian) was 1570 nM, the TGI (IGROV1 ovarian) was 3130 nM and the GI50 (K-562 leukemia) was 2580 nM. For the same compound, the TGI (K-562 leukemia) was 8070 nM, the GI50 (M14 melanoma) was 1680 nM and the TGI (M14 melanoma) was 3140 nM. The GI50 (MALME-3M melanoma) was 1610 nM, the TGI (MALME-3M melanoma) was 2970 nM and the GI50 (MDA-MB-231 breast) was 1790 nM. The TGI (MDA-MB-231 breast) was 3230 nM, the GI50 (MDA-MB-435) was 1720 nM and the TGI (MDA-MB-435) was 3150 nM. For the same compound, the GI50 (MOLT-4 leukemia) was 1620 nM, the TGI (MOLT-4 leukemia) was 4180 nM and the GI50 (NCI-H226 lung) was 1890 nM. It also gave a TGI (NCI-H226 lung) of 5170 nM, a GI50 (NCI-H522 lung) of 1600 nM and a TGI (NCI-H522 lung) of 3230 nM. It also gave a GI50 (NCI/ADR-RES ovarian) of 2110 nM, a TGI (NCI/ADR-RES ovarian) of 4730 nM and a GI50 (OVCAR-3 ovarian) of 2080 nM. The TGI (OVCAR-3 ovarian) was 4390 nM, the GI50 (OVCAR-4 ovarian) was 1910 nM and the TGI (OVCAR-4 ovarian) was 4150 nM. It also gave a GI50 (OVCAR-5 ovarian) of 1570 nM, a TGI (OVCAR-5 ovarian) of 3040 nM and a GI50 (PC-3 prostate) of 1640 nM. For the same compound, the TGI (PC-3 prostate) was 3140 nM, the GI50 (RPMI-8226 leukemia) was 2620 nM and the TGI (RPMI-8226 leukemia) was 7210 nM. For the same compound, the GI50 (SF-539 CNS) was 1640 nM, the TGI (SF-539 CNS) was 3060 nM and the GI50 (SK-MEL-2 melanoma) was 1810 nM. It also gave a TGI (SK-MEL-2 melanoma) of 3540 nM, a GI50 (SK-MEL-28 melanoma) of 1560 nM and a TGI (SK-MEL-28 melanoma) of 2900 nM. It also gave a GI50 (SK-MEL-5 melanoma) of 1670 nM, a TGI (SK-MEL-5 melanoma) of 3100 nM and a GI50 (SK-OV-3 ovarian) of 1910 nM. The TGI (SK-OV-3 ovarian) was 3880 nM, the GI50 (SN12C renal) was 1710 nM and the TGI (SN12C renal) was 3170 nM. For the same compound, the GI50 (SNB-19 CNS) was 1680 nM, the TGI (SNB-19 CNS) was 3150 nM and the GI50 (SNB-75 CNS) was 1500 nM. For the same compound, the TGI (SNB-75 CNS) was 3240 nM, the GI50 (SR leukemia) was 1660 nM and the TGI (SR leukemia) was 5100 nM. The GI50 (T-47D breast) was 1840 nM, the TGI (T-47D breast) was 4140 nM and the GI50 (TK-10 renal) was 1260 nM. It also gave a TGI (TK-10 renal) of 2580 nM, a GI50 (U251 CNS) of 1700 nM and a TGI (U251 CNS) of 3290 nM. For the same compound, the GI50 (UACC-257 melanoma) was 1690 nM, the TGI (UACC-257 melanoma) was 3230 nM and the GI50 (UACC-62 melanoma) was 1630 nM. For the same compound, the TGI (UACC-62 melanoma) was 3060 nM, the GI50 (UO-31 renal) was 1430 nM and the TGI (UO-31 renal) was 2730 nM.

From PubChem BioAssay (NCI)
